The test system of this assay is SrUGT76G1. In words: In vitro UDP-glucosyltransferase activity assay with GST-SrUGT76G1. In kind it is biochemical, Stevia rebaudiana. As to conditions: for product formed by GST-SrUGT76G1 from the acceptor (TLC): 50 μM substrate, UDP-glucose donor, 30° C., 2 h; for product formed by GST-UGT76G1 from the acceptor (HPLC): 5 mM UDP-glucose, 16 h. Here is the method:
Expression of recombinant UGT76G1 and UDP-glucosyltransferase activity assay: The full-length cDNA of SrUGT76G1 was cloned into pDEST15 to obtain GST-tag fused protein. The resulting expression vector was transformed into E. Coli BL21 (DE3)-derived Rosetta strain (Novagen) and grown under appropriate antibiotics. GST-tagged SrUGT76G1 recombinant protein was purified by glutathione agarose beads (ThermoFisher Scientific). About 1 μg of recombinant protein was used for enzyme assay with 50 μM of the substrate (dulcoside A or Reb A) in an assay buffer (50 mM HEPES, pH 7.5, 3 mM MgCl2, 10 μg/ml Bovine Serum Albumin). To initiate the reaction, a 1 mM UDP-glucose mixture (997.5 μM UDP-glucose and […] UDP-[^14C]-glucose, 2.78 kBq, Amersham Biosciences) was added. In vitro glucosyltransferase activity assays were performed as described by Richman et al. (2005). The assay was carried out at 30° C. for 2 h and extracted twice with 100 μl of water-saturated 1-butanol. Pooled fractions were dried in a vacuum centrifuge and resuspended in 10 μl water-saturated 1-butanol for thin layer chromatography (TLC) analysis. The TLC was performed with 10 μl of reaction products using chloroform:methanol:water (15:10:2 v/v/v) as the mobile phase on a silica gel-coated TLC plate (Fluka) in a mobile phase saturated glass chamber. SGs standards were run under the same condition. After air-drying, the image on the TLC plate was captured on a storage phosphor screen in a phosphorimager cassette (Bio-Rad) for 2-3 d and visualized on a Typhoon 9200 imager (Amersham Biosciences).
HPLC analysis of in vitro glucosyltransferase activity assay mixture: In vitro glucosyltransferase activity assay was performed as indicated in the TLC analysis, but 5 mM of UDP-glucose was used without UDP-[^14C]-glucose and the incubation time was increased to 16 h. Samples were extracted 3 times with water-saturated 1-butanol and dried completely in a vacuum centrifuge. Dried samples were dissolved in MeOH for UHPLC analysis in accordance with the method mentioned for SGs content analysis.

As for `C=C1C[C@@]23CC[C@H]4[C@@](C)(CCC[C@@]4(C)C(=O)O[C@@H]4O[C@H](CO)[C@@H](O)[C@H](O)[C@H]4O)[C@@H]2CC[C@]1(O[C@@H]1O[C@H](CO)[C@@H](O)[C@H](O)[C@H]1O[C@@H]1O[C@@H](C)[C@H](O)[C@@H](O)[C@H]1O)C3` [dulcoside A], the “product formed by GST-SrUGT76G1 from the acceptor (TLC)” value is listed as “Reb C” and the “product formed by GST-UGT76G1 from the acceptor (HPLC)” value (from here on “product formed by GST-UGT76G1”) was “Reb C”.
Regarding `C=C1C[C@@]23CC[C@H]4[C@@](C)(CCC[C@@]4(C)C(=O)O[C@@H]4O[C@H](CO)[C@@H](O)[C@H](O)[C@H]4O)[C@@H]2CC[C@]1(O[C@@H]1O[C@H](CO)[C@@H](O)[C@H](O[C@@H]2O[C@H](CO)[C@@H](O)[C@H](O)[C@H]2O)[C@H]1O[C@@H]1O[C@H](CO)[C@@H](O)[C@H](O)[C@H]1O)C3` [Reb A, rebaudioside A], the “product formed by GST-UGT76G1” value is “Reb I”.
Regarding `C=C1C[C@@]23CC[C@H]4[C@@](C)(CCC[C@@]4(C)C(=O)O[C@@H]4O[C@H](CO)[C@@H](O)[C@H](O)[C@H]4O)[C@@H]2CC[C@]1(O[C@@H]1O[C@H](CO)[C@@H](O)[C@H](O)[C@H]1O[C@@H]1O[C@H](CO)[C@@H](O)[C@H](O)[C@H]1O)C3` [stevioside], the “product formed by GST-SrUGT76G1 from the acceptor (TLC)” value is given as “Reb A” and the “product formed by GST-UGT76G1” value is “Reb A”.

Values taken from patent US20210123066A1, “METHODS OF REGENERATION AND TRANSFORMATION OF STEVIA PLANT AND TRANSGENIC STEVIA PLANTS HAVING ENHANCED STEVIOL GLYCOSIDES CONTENT” (TEMASEK LIFE SCIENCES LABORATORY LIMITED, priority 2018, published 2021).
